Reference: PubChem BioAssay AID256 (DTP/NCI, 2004)
Several values for one entry are separate records, joined by “and”; a condition that tells them apart may be missing. Equal values may be shown once. Toxic doses and inconclusive results are not listed.

Test system: CD2F1 mice, L1210 leukemia ip, survival T/C
Assay: NCI In Vivo Anticancer Drug Screen. Data for tumor model L1210 Leukemia (intraperitoneal) in CD2F1 (CDF1) mice
Settings: higher = longer survival
Summary of the method: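 Transplantable tumor in mice; compound-treated vs vehicle-treated groups. Read-out = treated/control ratio of the measured endpoint.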

[1] = endpoint: mean survival time, dose: 75.0 mg/kg/injection, schedule: Q04DX003 (ip), vehicle: saline
[2] = endpoint: mean survival time, dose: 150.0 mg/kg/injection, schedule: Q04DX003 (ip), vehicle: saline
[3] = endpoint: mean survival time, dose: 25.0 mg/kg/injection, schedule: Q04DX003 (ip), vehicle: saline
[4] = endpoint: mean survival time, dose: 50.0 mg/kg/injection, schedule: Q04DX003 (ip), vehicle: saline
[5] = endpoint: mean survival time, dose: 25.0 mg/kg/injection, schedule: Q01DX009 (ip), vehicle: saline with Tween-80
[6] = endpoint: mean survival time, dose: 50.0 mg/kg/injection, schedule: Q01DX009 (ip), vehicle: saline with Tween-80
[7] = endpoint: mean survival time, dose: 100.0 mg/kg/injection, schedule: Q01DX009 (ip), vehicle: saline with Tween-80
[8] = endpoint: mean survival time, dose: 100.0 mg/kg/injection, schedule: Q04DX003 (ip), vehicle: saline with Tween-80
[9] = endpoint: mean survival time, dose: 200.0 mg/kg/injection, schedule: Q04DX003 (ip), vehicle: saline with Tween-80
[10] = endpoint: mean survival time, dose: 400.0 mg/kg/injection, schedule: Q04DX003 (ip), vehicle: saline with Tween-80
[11] = endpoint: mean survival time, dose: 25.0 mg/kg/injection, schedule: Q04DX003 (ip), vehicle: saline with Tween-80
[12] = endpoint: mean survival time, dose: 200.0 mg/kg/injection, schedule: Q01DX009 (ip), vehicle: saline with Tween-80
[13] = endpoint: mean survival time, dose: 400.0 mg/kg/injection, schedule: Q01DX009 (ip), vehicle: saline with Tween-80
[14] = endpoint: mean survival time, dose: 100.0 mg/kg/injection, schedule: Q04DX003 (ip), vehicle: saline
[15] = endpoint: mean survival time, dose: 200.0 mg/kg/injection, schedule: Q04DX003 (ip), vehicle: saline
[16] = endpoint: mean survival time, dose: 400.0 mg/kg/injection, schedule: Q04DX003 (ip), vehicle: saline

## O=C1c2ccccc2C(=O)c2cc(S(=O)(=O)Cl)ccc21
endpoint: mean survival time, dose: 100.0 mg/kg/injection, schedule: Q01DX009 (ip), vehicle: saline
  T/C: 99 % of control
endpoint: mean survival time, dose: 200.0 mg/kg/injection, schedule: Q01DX009 (ip), vehicle: saline
  T/C: 92 % of control
endpoint: mean survival time, dose: 400.0 mg/kg/injection, schedule: Q01DX009 (ip), vehicle: saline
  T/C: 86 % of control

## Cc1cc(OCC(=O)O)ccc1Cl
endpoint: mean survival time, dose: 50.0 mg/kg/injection, schedule: Q01DX009 (ip), vehicle: Klucel (hydroxypropylcellulose) (HPC)
  T/C: 100 % of control
endpoint: mean survival time, dose: 100.0 mg/kg/injection, schedule: Q01DX009 (ip), vehicle: Klucel (hydroxypropylcellulose) (HPC)
  T/C: 104 % of control
endpoint: mean survival time, dose: 200.0 mg/kg/injection, schedule: Q01DX009 (ip), vehicle: Klucel (hydroxypropylcellulose) (HPC)
  T/C: 104 % of control

## N#CSCc1cc(Cl)c(CSC#N)cc1Cl
[1]
  T/C: 102 % of control
[2]
  T/C: 98 % of control
endpoint: mean survival time, dose: 300.0 mg/kg/injection, schedule: Q04DX003 (ip), vehicle: saline
  T/C: 102 % of control

## [Cl][Pt]([Cl])([Cl])[Cl]
endpoint: mean survival time, dose: 3.13 mg/kg/injection, schedule: Q01DX009 (ip), vehicle: saline
  T/C: 100 % of control
endpoint: mean survival time, dose: 3.13 mg/kg/injection, schedule: Q01DX009 (ip), vehicle: suspension in saline
  T/C: 101 % of control
endpoint: mean survival time, dose: 6.25 mg/kg/injection, schedule: Q01DX009 (ip), vehicle: saline
  T/C: 113 % of control
endpoint: mean survival time, dose: 6.25 mg/kg/injection, schedule: Q01DX009 (ip), vehicle: suspension in saline
  T/C: 107 % of control
endpoint: mean survival time, dose: 12.5 mg/kg/injection, schedule: Q01DX009 (ip), vehicle: saline
  T/C: 121 % of control
endpoint: mean survival time, dose: 12.5 mg/kg/injection, schedule: Q01DX009 (ip), vehicle: suspension in saline
  T/C: 121 % of control
endpoint: mean survival time, dose: 25.0 mg/kg/injection, schedule: Q01DX009 (ip), vehicle: saline
  T/C: 113 % of control and 102 % of control
endpoint: mean survival time, dose: 25.0 mg/kg/injection, schedule: Q01DX009 (ip), vehicle: suspension in saline
  T/C: 124 % of control
[3]
  T/C: 108 % of control and 107 % of control
[4]
  T/C: 97 % of control and 105 % of control

## NNC(=O)C1C2CCCCC21 (stereo not given)
[5]
  T/C: 94 % of control
[6]
  T/C: 97 % of control
[7]
  T/C: 97 % of control

## CCOC(=O)c1ccc(N/C(C)=C/C(=O)OC)cc1
[1]
  T/C: 94 % of control
[2]
  T/C: 91 % of control

## CC1(C)N=C(N)N=C(N)N1c1ccc(OCCCCNC(=O)Nc2ccc(S(=O)(=O)F)cc2)c(Cl)c1
endpoint: mean survival time, dose: 25.0 mg/kg/injection, schedule: Q01DX001 (ip), vehicle: saline with Tween-80
  T/C: 101 % of control
endpoint: mean survival time, dose: 50.0 mg/kg/injection, schedule: Q01DX001 (ip), vehicle: saline with Tween-80
  T/C: 95 % of control
endpoint: mean survival time, dose: 100.0 mg/kg/injection, schedule: Q01DX001 (ip), vehicle: saline with Tween-80
  T/C: 94 % of control and 95 % of control

## OC1(c2ccccc2)C(N2CCOCC2)=C(c2ccccc2)c2ccccc21 (stereo not given)
[8]
  T/C: 105 % of control
[9]
  T/C: 100 % of control
[10]
  T/C: 95 % of control

## [Cl][Pt+2][Cl].[NH-]CC1CCCCC1[NH-] (stereo not given)
endpoint: mean survival time, dose: 3.12 mg/kg/injection, schedule: Q04DX003 (ip), vehicle: saline with Tween-80
  T/C: 222 % of control
endpoint: mean survival time, dose: 6.25 mg/kg/injection, schedule: Q04DX003 (ip), vehicle: saline with Tween-80
  T/C: 319 % of control and 175 % of control
endpoint: mean survival time, dose: 12.5 mg/kg/injection, schedule: Q04DX003 (ip), vehicle: saline with Tween-80
  T/C: 348 % of control and 270 % of control
[11]
  T/C: 309 % of control

## O=C(Nc1ccccc1)c1ccc(Cl)c([N+](=O)[O-])c1
[5]
  T/C: 95 % of control
[11]
  T/C: 86 % of control
[6]
  T/C: 97 % of control
endpoint: mean survival time, dose: 50.0 mg/kg/injection, schedule: Q04DX003 (ip), vehicle: saline with Tween-80
  T/C: 89 % of control
[7]
  T/C: 100 % of control
[8]
  T/C: 94 % of control and 101 % of control

## O=C1c2cc([N+](=O)[O-])ccc2-c2cc(Br)ccc21
[8]
  T/C: 99 % of control
[9]
  T/C: 91 % of control

## Cc1ccc(P(=S)(c2ccccc2)c2ccccc2)c2ccccc12
endpoint: mean survival time, dose: 100.0 mg/kg/injection, schedule: Q01DX001 (ip), vehicle: saline
  T/C: 104 % of control
endpoint: mean survival time, dose: 200.0 mg/kg/injection, schedule: Q01DX001 (ip), vehicle: saline
  T/C: 101 % of control
endpoint: mean survival time, dose: 400.0 mg/kg/injection, schedule: Q01DX001 (ip), vehicle: saline
  T/C: 95 % of control

## COc1ccc(/C=C(/C(=O)O)c2ccc(OC)cc2)cc1
endpoint: mean survival time, dose: 100.0 mg/kg/injection, schedule: Q01DX009 (ip), vehicle: other
  T/C: 98 % of control
endpoint: mean survival time, dose: 200.0 mg/kg/injection, schedule: Q01DX009 (ip), vehicle: other
  T/C: 102 % of control
endpoint: mean survival time, dose: 400.0 mg/kg/injection, schedule: Q01DX009 (ip), vehicle: other
  T/C: 98 % of control

## CCCCOCN(COCCCC)C12CC3CC(CC(C3)C1)C2
endpoint: mean survival time, dose: 12.5 mg/kg/injection, schedule: Q01DX009 (ip), vehicle: saline with Tween-80
  T/C: 96 % of control and 100 % of control
[5]
  T/C: 98 % of control
[6]
  T/C: 101 % of control and 103 % of control
[7]
  T/C: 101 % of control and 105 % of control
[12]
  T/C: 113 % of control and 108 % of control

## Cc1cccc(SC(=O)Nc2ccc(Cl)cc2C)c1
[7]
  T/C: 95 % of control
[12]
  T/C: 95 % of control

## CSCc1cn(C2CC(O)C(CO)O2)c(=O)[nH]c1=O (stereo not given)
endpoint: mean survival time, dose: 12.5 mg/kg/injection, schedule: Q01DX005 (ip), vehicle: water
  T/C: 95 % of control
endpoint: mean survival time, dose: 25.0 mg/kg/injection, schedule: Q01DX005 (ip), vehicle: water
  T/C: 98 % of control
endpoint: mean survival time, dose: 50.0 mg/kg/injection, schedule: Q01DX005 (ip), vehicle: water
  T/C: 98 % of control
endpoint: mean survival time, dose: 100.0 mg/kg/injection, schedule: Q01DX005 (ip), vehicle: water
  T/C: 95 % of control
endpoint: mean survival time, dose: 200.0 mg/kg/injection, schedule: Q01DX005 (ip), vehicle: water
  T/C: 95 % of control

## COc1cc(Cl)ccc1NC(=O)OCCOc1cccc(C)c1
[6]
  T/C: 93 % of control
[7]
  T/C: 101 % of control
[12]
  T/C: 93 % of control

## COC1OC(CN=[N+]=[N-])C(N=[N+]=[N-])C(OS(C)(=O)=O)C1OS(C)(=O)=O (stereo not given)
[7]
  T/C: 95 % of control
[12]
  T/C: 95 % of control
[13]
  T/C: 90 % of control

## O=C(NC(CO)C(O)c1ccc([N+](=O)[O-])cc1)C(Cl)Cl (stereo not given)
[7]
  T/C: 96 % of control
[12]
  T/C: 104 % of control
[13]
  T/C: 110 % of control

## COc1cc(OC)c(NC(=O)OCC2CCCO2)cc1Cl (stereo not given)
[6]
  T/C: 90 % of control
[7]
  T/C: 97 % of control
[12]
  T/C: 94 % of control

## CCOc1ccc(C(=O)OC(CN(CC)CC)c2ccccc2)cc1 (stereo not given)
[3]
  T/C: 102 % of control
[4]
  T/C: 102 % of control
[14]
  T/C: 89 % of control

## COc1cccc2c1C(=O)c1c(O)c3c(c(O)c1C2=O)C[C@@](O)(C(=O)CO)C[C@@H]3OC1CC(N)CC(C)O1 (stereo not given in full)
endpoint: median survival time, dose: 0.75 mg/kg/injection, schedule: Q01DX009 (ip), vehicle: water
  T/C: 154 % of control
endpoint: median survival time, dose: 1.5 mg/kg/injection, schedule: Q01DX009 (ip), vehicle: water
  T/C: 200 % of control
endpoint: median survival time, dose: 3.0 mg/kg/injection, schedule: Q01DX009 (ip), vehicle: water
  T/C: 108 % of control

## O=C(O)C1(c2ccccc2)OCCO1
[14]
  T/C: 103 % of control
[15]
  T/C: 103 % of control
[16]
  T/C: 97 % of control

## O=C(c1ccc(F)cc1)c1ccc([N+](=O)[O-])cc1
[7]
  T/C: 103 % of control
[12]
  T/C: 102 % of control
[13]
  T/C: 97 % of control

## O=c1ccc2c([nH]1)CCCC2
[6]
  T/C: 92 % of control
[7]
  T/C: 103 % of control
[12]
  T/C: 103 % of control

## COc1ccc([C@@H]2c3cc4c(cc3C[C@H]3COC(=O)[C@@H]32)OCO4)cc1OC
endpoint: mean survival time, dose: 11.0 mg/kg/injection, schedule: Q01DX009 (ip), vehicle: saline with Tween-80
  T/C: 110 % of control
endpoint: mean survival time, dose: 22.0 mg/kg/injection, schedule: Q01DX009 (ip), vehicle: saline with Tween-80
  T/C: 110 % of control
endpoint: mean survival time, dose: 33.0 mg/kg/injection, schedule: Q01DX009 (ip), vehicle: saline with Tween-80
  T/C: 109 % of control
endpoint: mean survival time, dose: 67.0 mg/kg/injection, schedule: Q01DX009 (ip), vehicle: saline with Tween-80
  T/C: 107 % of control

## O=[N+]([O-])c1ccc(/C=N\N=C\c2ccco2)cc1
[8]
  T/C: 88 % of control
[12]
  T/C: 86 % of control
[9]
  T/C: 111 % of control
[10]
  T/C: 102 % of control

## c1cc[n+](CC[n+]2ccccc2)cc1
[14]
  T/C: 102 % of control
[15]
  T/C: 100 % of control
[16]
  T/C: 111 % of control

## O=Cc1ccc(/C=C2\C=Cc3ccccc32)cc1
[7]
  T/C: 101 % of control
[12]
  T/C: 94 % of control
[13]
  T/C: 103 % of control

## CCCCCCCCCCCCCC[n+]1ccccc1
endpoint: mean survival time, dose: 0.07 mg/kg/injection, schedule: Q01DX009 (ip), vehicle: saline
  T/C: 93 % of control
endpoint: mean survival time, dose: 0.13 mg/kg/injection, schedule: Q01DX009 (ip), vehicle: saline
  T/C: 101 % of control
endpoint: mean survival time, dose: 0.25 mg/kg/injection, schedule: Q01DX009 (ip), vehicle: saline
  T/C: 103 % of control
endpoint: mean survival time, dose: 0.25 mg/kg/injection, schedule: Q04DX003 (ip), vehicle: saline sonified
  T/C: 102 % of control
